Measured values taken from US20080021026A1, “BENZOTHIOPHENE INHIBITORS OF RHO KINASE” (priority 2006, published 2008).

Legend:
[1] = molecular target: T1, recombinant N-terminal GST-tagged human Rho kinase 1 (ROCK1, amino acids 1-535) (Homo sapiens, UniProt Q13464); experiment: In vitro Rho kinase assay (luciferase-based ATP consumption), ROCK1; type: biochemical; details: recombinant GST-tagged human ROCK1, luciferase-based ATP consumption; read-out: ROCK1 IC50
T1 construct: ROCK1, amino acids 1-535; purchased Invitrogen Inc. PV-3691
T1 sequence (Q13464 1-535): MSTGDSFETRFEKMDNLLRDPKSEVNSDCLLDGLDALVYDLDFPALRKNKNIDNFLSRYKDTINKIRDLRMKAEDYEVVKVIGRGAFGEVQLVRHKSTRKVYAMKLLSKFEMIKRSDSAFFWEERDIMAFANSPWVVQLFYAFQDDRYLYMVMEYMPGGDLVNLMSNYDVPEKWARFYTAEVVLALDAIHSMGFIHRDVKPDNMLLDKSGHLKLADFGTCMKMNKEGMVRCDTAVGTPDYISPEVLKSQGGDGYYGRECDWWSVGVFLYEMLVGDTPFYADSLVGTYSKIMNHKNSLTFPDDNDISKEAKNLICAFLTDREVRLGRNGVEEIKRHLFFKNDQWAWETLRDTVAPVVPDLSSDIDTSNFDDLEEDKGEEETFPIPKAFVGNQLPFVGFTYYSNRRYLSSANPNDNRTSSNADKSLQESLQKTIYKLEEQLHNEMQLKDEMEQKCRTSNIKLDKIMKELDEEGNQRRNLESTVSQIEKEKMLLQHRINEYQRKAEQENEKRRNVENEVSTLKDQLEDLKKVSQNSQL
Protocol: In Vitro Rho Kinase Assay
Rho kinase biochemical assays described below depend on firefly luciferase-based, indirect measurement of total ATP consumption by the kinase following incubation with substrate and ATP. 25 μl of Rho kinase assay buffer (20 mM Tris-HCL [pH 7.5], 1 mM MgCl2, 0.4 mM CaCl2, 0.15 mM EGTA, 0.1 mg/ml bovine serum albumin) containing 0.82 μg/ml of recombinant N-terminal GST-tagged human Rho kinase 1 (ROCK1, amino acids 1-535, Invitrogen Inc., cat. #PV-3691) or recombinant N-terminal GST-tagged human Rho kinase 2 (ROCK2, amino acids 1-552, Invitrogen Inc., cat #PV3759), 100 μg/ml S6 peptide substrate (related to amino acids 218-249 of the human 40S ribosomal protein S6, and suitable for ROCK1 or ROCK2, e.g. Upstate/Millipore Inc., cat #12-420), and 3 µM ATP are dispensed to wells of a 384 multi-well opaque plate. The plate is centrifuged for 30 seconds at approximately 200×g. 240 nl of test compound in DMSO is dispensed to each well by passive pin transfer. The lag phase of this in vitro kinase reaction permits addition of compounds soon after the reaction initiates. The reaction is allowed to incubate at 30° C. for 2 hours. The assay plates are sealed and maintained in a humidified environment. After 2 hours, 25 μl of easylite protein kinase assay reagent (Perkin-Elmer, Inc.) is dispensed. After an additional 10 minute incubation at room temperature (about 22° C.), luminescence activity is measured on a Molecular Devices Analyst multi-mode plate reader or other suitable plate reader. Kinase inhibition results in less ATP consumption, and therefore increased luminescence signal. Negative control activity is measured with DMSO lacking any test compound. The positive control is 2-methyl-1-(4-methylisoquinolin-5-ylsulfonyl)perhydro-1,4-diazepine hydrochloride (aka H-1152P, HCl salt). Efficacy is measured as a percentage of positive control activity. […] The designation NT means the cited example was not tested.

[2] = molecular target: T2, recombinant N-terminal GST-tagged human Rho kinase 2 (ROCK2, amino acids 1-552) (Homo sapiens, UniProt O75116); experiment: In vitro Rho kinase assay (luciferase-based ATP consumption), ROCK2; type: biochemical; details: recombinant GST-tagged human ROCK2, luciferase-based ATP consumption; read-out: ROCK2 IC50
T2 construct: ROCK2, amino acids 1-552; purchased Invitrogen Inc. PV3759
T2 sequence (O75116 1-552): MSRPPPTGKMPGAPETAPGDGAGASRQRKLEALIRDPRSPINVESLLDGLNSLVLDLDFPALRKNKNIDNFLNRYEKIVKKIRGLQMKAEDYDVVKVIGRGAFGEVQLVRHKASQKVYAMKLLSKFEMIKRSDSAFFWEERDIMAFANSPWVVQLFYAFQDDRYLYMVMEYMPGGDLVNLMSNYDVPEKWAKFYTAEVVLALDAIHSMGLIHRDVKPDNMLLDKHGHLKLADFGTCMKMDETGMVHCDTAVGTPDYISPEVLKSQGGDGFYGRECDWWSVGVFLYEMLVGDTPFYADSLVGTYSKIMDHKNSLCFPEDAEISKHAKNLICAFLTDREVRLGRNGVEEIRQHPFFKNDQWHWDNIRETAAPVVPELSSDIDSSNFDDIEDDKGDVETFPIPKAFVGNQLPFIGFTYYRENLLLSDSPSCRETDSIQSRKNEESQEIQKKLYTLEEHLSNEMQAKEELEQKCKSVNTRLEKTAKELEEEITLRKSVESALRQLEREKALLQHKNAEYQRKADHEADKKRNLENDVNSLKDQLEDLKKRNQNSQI
Summary of the method: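 Luciferase-based luminescence of leftover ATP after 2 h at 30 °C, where inhibition raises signal, reports activity of GST-tagged ROCK2 (aa 1-552) at 0.82 μg/ml. Conditions: S6 peptide 100 μg/ml, […], pH 7.5 Tris buffer. Results given as percent of H-1152P control activity.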

Cc1c(-c2ccnc(N)n2)sc2ccc(Cc3cccc(C(=O)N4CCN(C)CC4)c3)cc12 [Example 50, (3-((2-(2-Aminopyrimidin-4-yl)-3-methylbenzo[b]thiophen-5-yl)methyl)phenyl)(4-methylpiperazin-1-yl)methanone]
IC50 [1]: < 5 µM | IC50 [2]: < 5 µM

Cc1c(-c2ccnc(N)n2)sc2ccc(Nc3cccc(Oc4ccccc4)c3)cc12 [Example 53, 4-(3-Methyl-5-(3-phenoxyphenylamino)benzo[b]thiophen-2-yl)pyrimidin-2-amine]
IC50 [1]: < 5 µM | IC50 [2]: < 5 µM

Cc1c(-c2ccnc(N)n2)sc2ccc(Nc3cccc(OC(F)(F)F)c3)cc12 [Example 54, 4-(3-Methyl-5-(3-(trifluoromethoxy)phenylamino)benzo[b]thiophen-2-yl)pyrimidin-2-amine]
IC50 [1]: > 5 µM | IC50 [2]: > 5 µM

Cc1c(-c2ccnc(N)n2)sc2ccc(Nc3cccc(OCc4ccccc4)c3)cc12 [Example 55, 4-(5-(3-(Benzyloxy)phenylamino)-3-methylbenzo[b]thiophen-2-yl)pyrimidin-2-amine]
IC50 [1]: < 5 µM | IC50 [2]: < 5 µM

Cc1c(-c2ccnc(N)n2)sc2ccc(Nc3cccc(NS(C)(=O)=O)c3)cc12 [Example 56, N-(3-(2-(2-Aminopyrimidin-4-yl)-3-methylbenzo[b]thiophen-5-ylamino)phenyl)methanesulfonamide]
IC50 [1]: < 5 µM | IC50 [2]: < 5 µM

Cc1c(-c2ccnc(N)n2)sc2ccc(Nc3cccc(N)c3)cc12 [Example 57, N^1-(2-(2-Aminopyrimidin-4-yl)-3-methylbenzo[b]thiophen-5-yl)benzene-1,3-diamine]
IC50 [1]: < 5 µM | IC50 [2]: < 5 µM

CC(=O)Nc1cccc(Nc2ccc3sc(-c4ccnc(N)n4)c(C)c3c2)c1 [Example 58, N-(3-(2-(2-Aminopyrimidin-4-yl)-3-methylbenzo[b]thiophen-5-ylamino)phenyl)acetamide]
IC50 [1]: < 5 µM | IC50 [2]: < 5 µM

Cc1c(-c2ccnc(N)n2)sc2ccc(Nc3cccc(NC(=O)c4ccc(OCCN5CCOCC5)cc4)c3)cc12 [Example 59, N-(3-(2-(2-Aminopyrimidin-4-yl)-3-methylbenzo[b]thiophen-5-ylamino)phenyl)-4-(2-morpholinoethoxy)benzamide]
IC50 [1]: < 5 µM | IC50 [2]: < 5 µM

CC(=O)Oc1ccc(C(=O)Nc2cccc(Nc3ccc4sc(-c5ccnc(N)n5)c(C)c4c3)c2)cc1 [Example 60, 4-(3-(2-(2-Aminopyrimidin-4-yl)-3-methylbenzo[b]thiophen-5-ylamino)phenylcarbamoyl)phenyl acetate]
IC50 [1]: < 5 µM | IC50 [2]: < 5 µM

Cc1c(-c2ccnc(N)n2)sc2ccc(Nc3cccc(NC(=O)c4ccc(O)cc4)c3)cc12 [Example 61, N-(3-(2-(2-Aminopyrimidin-4-yl)-3-methylbenzo[b]thiophen-5-ylamino)phenyl)-4-hydroxybenzamide]
IC50 [1]: < 5 µM | IC50 [2]: < 5 µM

COC(=O)c1ccc(C(=O)Nc2cccc(Nc3ccc4sc(-c5ccnc(N)n5)c(C)c4c3)c2)cc1 [Example 62, Methyl 4-(3-(2-(2-aminopyrimidin-4-yl)-3-methylbenzo[b]thiophen-5-ylamino)phenylcarbamoyl)benzoate]
IC50 [1]: < 5 µM | IC50 [2]: < 5 µM

Cc1c(-c2ccnc(N)n2)sc2ccc(Nc3cccc(NC(=O)c4ccc(C(=O)O)cc4)c3)cc12 [Example 63, 4-(3-(2-(2-Aminopyrimidin-4-yl)-3-methylbenzo[b]thiophen-5-ylamino)phenylcarbamoyl)benzoic acid]
IC50 [1]: < 5 µM | IC50 [2]: < 5 µM

Cc1c(-c2ccnc(N)n2)sc2ccc(Nc3ccccn3)cc12 [Example 64, 4-(3-Methyl-5-(pyridin-2-ylamino)benzo[b]thiophen-2-yl)pyrimidin-2-amine]
IC50 [1]: < 5 µM | IC50 [2]: < 5 µM

Cc1c(-c2ccnc(N)n2)sc2ccc(Nc3cccnc3)cc12 [Example 65, 4-(3-Methyl-5-(pyridin-3-ylamino)benzo[b]thiophen-2-yl)pyrimidin-2-amine]
IC50 [1]: < 5 µM | IC50 [2]: < 5 µM

Cc1c(-c2ccnc(N)n2)sc2ccc(Nc3ccncc3)cc12 [Example 66, 4-(3-Methyl-5-(pyridin-4-ylamino)benzo[b]thiophen-2-yl)pyrimidin-2-amine]
IC50 [1]: < 5 µM | IC50 [2]: < 5 µM

COc1cncc(Nc2ccc3sc(-c4ccnc(N)n4)c(C)c3c2)c1 [Example 67, 4-(5-(5-Methoxypyridin-3-ylamino)-3-methylbenzo[b]thiophen-2-yl)pyrimidin-2-amine]
IC50 [1]: < 5 µM | IC50 [2]: < 5 µM

Cc1c(-c2ccnc(N)n2)sc2ccc(Nc3cncc(O)c3)cc12 [Example 68, 5-(2-(2-Aminopyrimidin-4-yl)-3-methylbenzo[b]thiophen-5-ylamino)pyridin-3-ol]
IC50 [1]: < 5 µM | IC50 [2]: < 5 µM

Cc1c(-c2ccnc(N)n2)sc2ccc(Nc3ccccc3)cc12 [Example 69, 4-(3-Methyl-5-(phenylamino)benzo[b]thiophen-2-yl)pyrimidin-2-amine]
IC50 [1]: < 5 µM | IC50 [2]: < 5 µM

Cc1c(-c2ccnc(N)n2)sc2ccc(Nc3ccc4c(c3)OCO4)cc12 [Example 70, 4-(5-(Benzo[d][1,3]dioxol-5-ylamino)-3-methylbenzo[b]thiophen-2-yl)pyrimidin-2-amine]
IC50 [1]: < 5 µM | IC50 [2]: < 5 µM

Cc1c(-c2ccnc(N)n2)sc2ccc(Nc3cncc(C(=O)O)c3)cc12 [Example 71, 5-(2-(2-Aminopyrimidin-4-yl)-3-methylbenzo[b]thiophen-5-ylamino)nicotinic acid]
IC50 [1]: < 5 µM | IC50 [2]: < 5 µM

Cc1c(-c2ccnc(N)n2)sc2ccc(N)cc12 [Example 72, 4-(5-Amino-3-methylbenzo[b]thiophen-2-yl)pyrimidin-2-amine]
IC50 [1]: < 5 µM | IC50 [2]: < 5 µM

COc1cc(C(=O)Nc2ccc3sc(-c4ccnc(N)n4)c(C)c3c2)cc(OC)c1OC [Example 73, N-(2-(2-Aminopyrimidin-4-yl)-3-methylbenzo[b]thiophen-5-yl)-3,4,5-trimethoxy benzamide]
IC50 [1]: > 5 µM | IC50 [2]: > 5 µM

COc1nccc(Nc2ccc3sc(-c4ccnc(N)n4)c(C)c3c2)n1 [Example 74, 4-(5-(2-Methoxypyrimidin-4-ylamino)-3-methylbenzo[b]thiophen-2-yl)pyrimidin-2-amine]
IC50 [1]: < 5 µM | IC50 [2]: < 5 µM

Cc1c(-c2ccnc(N)n2)sc2ccc(Nc3ccnc(O)n3)cc12 [Example 75, 4-(2-(2-Aminopyrimidin-4-yl)-3-methylbenzo[b]thiophen-5-ylamino)pyrimidin-2-ol]
IC50 [1]: < 5 µM | IC50 [2]: < 5 µM

CNc1nccc(Nc2ccc3sc(-c4ccnc(N)n4)c(C)c3c2)n1 [Example 76, N^4-(2-(2-Aminopyrimidin-4-yl)-3-methylbenzo[b]thiophen-5-yl)-N^2-methyl pyrimidine-2,4-diamine]
IC50 [1]: < 5 µM | IC50 [2]: < 5 µM

CCN(CC)CCNc1nccc(Nc2ccc3sc(-c4ccnc(N)n4)c(C)c3c2)n1 [Example 77, N^4-(2-(2-Aminopyrimidin-4-yl)-3-methylbenzo[b]thiophen-5-yl)-N^2-(2-(diethylamino)ethyl)pyrimidine-2,4-diamine]
IC50 [1]: < 5 µM | IC50 [2]: < 5 µM

COc1cccc(N(C)c2ccc3sc(-c4ccnc(N)n4)c(C)c3c2)c1 [Example 78, 4-(5-((3-Methoxyphenyl)(methyl)amino)-3-methylbenzo[b]thiophen-2-yl)pyrimidin-2-amine]
IC50 [1]: < 5 µM | IC50 [2]: < 5 µM

Cc1c(-c2ccnc(N)n2)sc2ccc(Oc3ccccc3)cc12 [Example 79, 4-(3-Methyl-5-phenoxybenzo[b]thiophen-2-yl)pyrimidin-2-amine]
IC50 [1]: < 5 µM | IC50 [2]: < 5 µM

Cc1c(-c2ccnc(N)n2)sc2ccc(Oc3cccc([N+](=O)[O-])c3)cc12 [Example 80, 4-(3-Methyl-5-(3-nitrophenoxy)benzo[b]thiophen-2-yl)pyrimidin-2-amine]
IC50 [1]: < 5 µM | IC50 [2]: < 5 µM

COc1cccc(Oc2ccc3sc(-c4ccnc(N)n4)c(C)c3c2)c1 [Example 81, 4-(5-(3-Methoxyphenoxy)-3-methylbenzo[b]thiophen-2-yl)pyrimidin-2-amine]
IC50 [1]: < 5 µM | IC50 [2]: < 5 µM
